The data set can be described thus: in vitro. The settings on record: human, hela cells, % viability.

Molecules are shown by their SMILES.

For `CC1(C)Cc2c(sc(NC(=O)C3CC(Cl)=CCC3C(=O)O)c2C#N)CO1` (stereo not shown) [CBK265002], the viability at 28.5 h, 10 µM came out at 97.6%.
For the compound `CS(=O)(=O)N1CC2(CCN(CC(=O)c3ccsc3)CC2)c2ccccc21` [CBK144595T], the viability at 28.5 h, 10 µM was 87%.
Then `CCOC(=O)CNc1ccc(C(F)(F)F)cc1` [CBK057732], with 94.4%.
Turning to `COc1cc(C#N)ccc1OCc1ccc2nc(C(F)(F)F)cc(Cl)c2c1` [CBK002589], the viability at 28.5 h, 10 µM came out at 98.3%.
Consider `O=C(O)Cc1ccc(OCC(=O)NCc2ccc(Cl)cc2Cl)cc1` [CBK296628], for which the viability at 28.5 h, 10 µM came out at 109%.
With `O=C(CCN1C(=O)c2cccc3cccc(c23)C1=O)Oc1ccc2c(c1)OCO2` [CBK266237], the viability at 28.5 h, 10 µM turned out to be 106%.
As for `CCOc1ccc(S(=O)(=O)N2CCN(Cc3cccc(F)c3C)CC2)c2cccnc12` [CBK062794], the viability at 28.5 h, 10 µM stood at 78.3%.
Then `Cc1ccc(S(=O)(=O)Nc2ccc3c(ccn3CCC3CCN(C(=O)OC(C)(C)C)CC3)c2)cc1Cl` [CBK172990], with 94.6%; and `CN(C)c1ccc(-c2nc(-c3cccc(OC(F)(F)F)c3)cnc2N)cc1` [CBK063942], with 98.3%.
As to `Cc1cccc2cc(CN(Cc3ccco3)C(=O)C3CCCCC3)c(O)nc12` [CBK269178], the viability at 28.5 h, 10 µM was found to be 102%.
Then `CCN1CCCCC1CNC(=O)c1sc(C)nc1C` (stereo not shown) [CBK282206], with 90.2%.
The value for `CCOC(=O)c1c(-c2ccc(Cl)cc2)csc1NC(=O)CCCC(=O)O` [CBK296929] was 91%; that for `Cn1c(=O)n(C)c2cc(CNC(=O)C3NCCc4[nH]cnc43)ccc21` (stereo not shown) [CBK307274] was 89.2%; that for `COC(=O)c1cc(Br)c(NC(=O)c2cccs2)cc1OC` [CBK066842] was 86.6%.
`CC(C)Nc1cc(OC2CCOC2)ncn1` (stereo not shown) [CBK115888]: the viability at 28.5 h, 10 µM was 93.4%.
As to `O=S(=O)(c1ccccc1)c1nc(-c2ccco2)oc1NCCCn1ccnc1` [CBK267670], the viability at 28.5 h, 10 µM stood at 87.1%.
Take `O=C(c1cnn(-c2ccc(Cl)cc2)c1C(F)(F)F)N1CCN(c2ncccn2)CC1` [CBK107448]: the viability at 28.5 h, 10 µM was 98%.
Turning to `COc1ccccc1C1CC(c2ccccc2)=NN1C(=O)CCC(=O)O` (stereo not shown) [CBK287088], the viability at 28.5 h, 10 µM was 83.4%.
On to `Cc1cc(I)ccc1NC(=O)CCN1C(=O)c2cccc([N+](=O)[O-])c2C1=O` [CBK263128], for which the viability at 28.5 h, 10 µM was determined as 88.3%.
In the case of `O=C(Nc1ccc(Cl)c(Cl)c1)N1CCN(c2n[nH]c(=O)[nH]c2=O)CC1` [CBK297514], the viability at 28.5 h, 10 µM turned out to be 89.4%.
On to `CC(C)CNS(=O)(=O)c1ccc(N2CCCC2=O)cc1` [CBK304981], for which the viability at 28.5 h, 10 µM is 106%.
Turning to `Cc1ccccc1NC(=O)CC(C(=O)O)N1CCOCC1` (stereo not shown) [CBK266969], the viability at 28.5 h, 10 µM turned out to be 113%.
For the compound `O=C(CSc1cccc2ccccc12)Nc1ccc([N+](=O)[O-])cc1O` [CBK268696], the viability at 28.5 h, 10 µM stood at 115%.
Then `Cn1nc(-c2cccs2)cc1[C@H]1CN2CC[C@H]1C[C@@H]2CNS(C)(=O)=O` [CBK289102], with 93.5%; and `c1ccc(Cn2cc(-c3nccnc3OCc3ccccn3)cn2)cc1` [CBK107088], with 98.9%; and `CCn1c(COc2ccc(C(=O)O)cc2)nc2ccccc21` [CBK267647], with 91.7%.
Turning to `Cc1cc(CN2CCC(N(C)Cc3nnc(C)n3C)C2)no1` (stereo not shown) [CBK305088], the viability at 28.5 h, 10 µM is 96.6%.
In the case of `c1ccc2c(c1)nnn2Cc1nnc2sc(-c3cnccn3)nn12` [CBK268393], the viability at 28.5 h, 10 µM came out at 84.7%.
Regarding `O=C(O)CCSc1c[nH]c2ccccc12` [CBK262319], the viability at 28.5 h, 10 µM is 94.5%.
With `Cc1ccccc1C(=O)NC1(C(F)(F)F)C(=O)Nc2c1c(=O)[nH]c(=O)n2CCc1ccccc1` (stereo not shown) [CBK267483], the viability at 28.5 h, 10 µM was 86.6%.
Regarding `COCCCNCCSc1ccc(Cl)cc1` [CBK265093], the viability at 28.5 h, 10 µM turned out to be 95%.
For the compound `O=C(c1ccncc1)N1CCc2ccccc21` [CBK200280], the viability at 28.5 h, 10 µM is 93.7%.
As to `Oc1ccc2cc(-c3cccc(C(F)(F)F)c3)cnc2n1` [CBK081285], the viability at 28.5 h, 10 µM amounted to 59.5%.
Regarding `CN1CCN(CCCNC(=O)N2CCN(c3cc(C(F)(F)F)ccn3)CC2)CC1` [CBK156431], the viability at 28.5 h, 10 µM came out at 93.7%.
As to `O=C(NCCc1ccccc1)c1c(NC(=O)C2COc3ccccc3O2)sc2c1CCCC2` (stereo not shown) [CBK265522], the viability at 28.5 h, 10 µM worked out at 89.8%.
Consider `O=C(C1CCCCC1)N1CCC(c2n[nH]c3ncccc23)CC1` [CBK284905], for which the viability at 28.5 h, 10 µM worked out at 85.7%.
For the compound `COc1cc(OC)cc(C(=O)N2CCC3(CC2)NC(=O)c2ccc(OC)cc2O3)c1` [CBK166328], the viability at 28.5 h, 10 µM was 106%.
Then `CCn1c(CNC(=O)c2cn3cc(C)ccc3n2)nc2ccccc21` [CBK281395], with 89.4%; and `C1=CC2N=C(SCc3ccccc3)OC2C=C1` (stereo not shown) [CBK021412], with 92.6%; and `Cc1ccc(-c2csc3ncnc(SCc4nc5ccccc5[nH]4)c23)cc1` [CBK267590], with 83.5%.
Take `COc1ccc(C(NC(=O)N2CCN(C(=O)NCc3ccccc3Cl)CC2)c2ccccc2C)cn1` (stereo not shown) [CBK081471]: the viability at 28.5 h, 10 µM came to 88.7%.
As to `Cc1cccc(-c2cc(C(=O)O)c(C)o2)c1` [CBK045855], the viability at 28.5 h, 10 µM turned out to be 87.7%.
Regarding `COc1ccc(O)c(-c2c(-c3ccc(C)cc3)n[nH]c2C)c1` [CBK287961], the viability at 28.5 h, 10 µM amounted to 93.1%.
As to `CSc1nncc(-c2ccc(Cl)cc2)n1` [CBK028747], the viability at 28.5 h, 10 µM came out at 77.1%.
As for `O=C(c1c[nH]c2ccccc12)N1CCC(Cc2ccccc2)CC1` [CBK200180], the viability at 28.5 h, 10 µM stood at 91.3%.
Turning to `CC(C)[C@H]1CN(Cc2ccco2)CCN1C(=O)N1CCCCC1` [CBK284272], the viability at 28.5 h, 10 µM was 87.6%.
Turning to `CC(=O)NCC(=O)N1CCCC2(C/C=C/COc3ccccc3C(=O)NCCNC2=O)C1` (stereo not shown) [CBK291991], the viability at 28.5 h, 10 µM was found to be 87.1%.
In the case of `COc1ccc(C(C)C)cc1-c1nccnc1NCc1ccc(S(C)(=O)=O)cc1` [CBK036903], the viability at 28.5 h, 10 µM turned out to be 92.5%.
On to `COCC1CCCN1C(=O)c1cnn2c(C)c(Cc3ccccc3)c(C)nc12` (stereo not shown) [CBK162213], for which the viability at 28.5 h, 10 µM is 93.9%.
For the compound `O=C(Nc1ccc(-c2ccc(NC(=O)c3ccncc3)cc2)cc1)c1ccncc1` [CBK262321], the viability at 28.5 h, 10 µM was 98.9%.
In the case of `O=C1CN(S(=O)(=O)c2ccc(NS(=O)(=O)c3ccc4ccccc4c3)cc2)CC(=O)N1` [CBK262513], the viability at 28.5 h, 10 µM came to 95.4%.
Then `CC(C)c1nc(NCCc2nnc3n2CCC3)nc(N(C)C)n1` [CBK306409], with 89.1%; and `COc1ccc(C)cc1S(=O)(=O)N(CC(=O)O)c1ccc(Cl)c(Cl)c1` [CBK269095], with 104%; and `CC1Cc2cc(CCC(=O)N3CCCc4c(cnn4C)C3)ccc2O1` (stereo not shown) [CBK282882], with 100%.
`COc1ccc(Nc2ccc(-c3ccsc3)cn2)c(C)c1` [CBK036855]: the viability at 28.5 h, 10 µM amounted to 109%.
On to `COc1ccccc1CCCNC(=O)c1ccc2nc(C)[nH]c2c1` [CBK283258], for which the viability at 28.5 h, 10 µM was found to be 84.7%.
The value for `CCn1cncc1C(=O)N1CCCC1(C)C(=O)NC1CCCC1` (stereo not shown) [CBK281376] was 81.2%.
As to `CC(NC(=O)c1ccc(=O)n(C)n1)c1ccc2c(c1)CCCC2` (stereo not shown) [CBK281416], the viability at 28.5 h, 10 µM stood at 91.9%.
Turning to `O=C(CN1C(=O)N2CCN=C2c2ccc(Cl)cc21)NCC1CC1` [CBK282877], the viability at 28.5 h, 10 µM is 94.2%.
Regarding `CCNC(=O)Nc1ccc(-c2ccc3c(c2)OCCCO3)c2ccccc12` [CBK083726], the viability at 28.5 h, 10 µM came to 89.4%.
In the case of `CCOC(=O)N1CCC(NS(=O)(=O)c2ccc3c(c2)oc(=O)n3C)CC1` [CBK304666], the viability at 28.5 h, 10 µM was 84.5%.
Then `CC(=O)Nc1ccc(C(=O)N2CCCC(c3cccc(Cc4ccc(Cl)cc4)n3)C2)cc1` (stereo not shown) [CBK286134], with 99.9%; and `O=C(c1ccc(F)cc1)C1CCN(Cc2cc(=O)[nH]c(=O)[nH]2)CC1` [CBK149132], with 91.8%.
Regarding `CC(C)c1cccc(N2CC(C(=O)Nc3cc(S(C)(=O)=O)ccc3F)CC2=O)c1` (stereo not shown) [CBK296751], the viability at 28.5 h, 10 µM came out at 96.8%.
`CCC(=O)N1C[C@@H](N(C)C)[C@H](c2cn(C)c3ccccc23)C1` [CBK285008]: the viability at 28.5 h, 10 µM was found to be 91.3%.
As for `O=C(Nc1ccc(O)cc1)c1ccc2c(c1)C(=O)N(c1cccc(N3C(=O)c4ccc(C(=O)Nc5ccc(O)cc5)cc4C3=O)n1)C2=O` [CBK261334], the viability at 28.5 h, 10 µM worked out at 102%.
In the case of `O=C(O)CN(CC(=O)O)c1ccccc1` [CBK261326], the viability at 28.5 h, 10 µM is 90.7%.
Consider `CN(CCCCCC(=O)/C=N/O)Cc1ccccc1` [CBK288499], for which the viability at 28.5 h, 10 µM is 91.7%.
In the case of `CC(=O)Nc1ccc(S(=O)(=O)N2CCN(c3ccc([N+](=O)[O-])c(NC4C5CC6CC(C5)CC4C6)c3)CC2)cc1` (stereo not shown) [CBK268802], the viability at 28.5 h, 10 µM turned out to be 90.5%.
Then `NC(CCCCNC(=O)c1ccccc1)C(=O)O` (stereo not shown) [CBK261087], with 97%; and `c1ccc(OCCN2CCCN(c3cc(OCC4COc5ccccc5O4)ncn3)CC2)cc1` (stereo not shown) [CBK083395T], with 87.7%; and `COC(=O)c1ccccc1NC(=O)CNS(=O)(=O)c1c(C)cc(C)cc1C` [CBK265974], with 104%.
For the compound `Cc1nnc2sc(-c3cccc(NC(=S)NC(=O)c4cc5ccccc5o4)c3)nn12` [CBK267282], the viability at 28.5 h, 10 µM came to 87.4%.
Turning to `Cc1ccc(S(=O)(=O)N(CC(=O)Nc2ccccc2-c2ccccc2)c2cccc(C)c2)cc1` [CBK265988], the viability at 28.5 h, 10 µM was 98%.
Then `COC(=O)c1ccsc1NS(=O)(=O)c1ccc(Oc2ccccc2)cc1` [CBK039064], with 108%.
Turning to `COC(=O)c1cccc(CN2CCC3(CC2)NC(=O)Cc2ccccc23)c1` [CBK039807], the viability at 28.5 h, 10 µM turned out to be 101%.
For the compound `CCCC1NCCn2cccc21` (stereo not shown) [CBK007074F], the viability at 28.5 h, 10 µM was found to be 85.6%.
Consider `O=C(Cc1ccccn1)N1CCC(c2cccc(Cc3ccc(C(F)(F)F)cc3)n2)CC1` [CBK286224], for which the viability at 28.5 h, 10 µM was found to be 101%.
Consider `CCN(CC)Cc1c(O)ccc2occ(C(=O)c3cc(OC)ccc3OC)c12` [CBK261949], for which the viability at 28.5 h, 10 µM came out at 97%.
